Four compounds from ChEMBL document CHEMBL1268811, “A retro-inverso TAT-like peptide designed to deliver cysteamine to cells” (Bioorg Med Chem Lett, 2010) can be followed below.

*1 amine or outer side, *2 acyl side, *3 side chain or, on linkers, in order; H or OH if unused. Where a SMILES comes first, the peptide text is derived from it. The star is where a group is joined. 5TAMRA = CN(C)c1ccc2c(c1)Oc1cc(N(C)C)ccc1C21OC(=O)c2cc(C(=O)*)ccc21; Cysteamine = C(CS[*:2])N[*:1]

This data set can be described thus: Drug uptake in lysosomes of human HeLa cells transfected with Cerulean-Lamp-1 plasmid at 1 uM after 1 hr by fluorescence microscopy. In kind it is ADME, cell-based, Lysosome.
For the compound `CN(C)c1ccc2c(c1)Oc1cc(N(C)C)ccc1C21OC(=O)c2cc(C(=O)N[C@@H](CCCNC(=N)N)C(=O)N[C@@H](CCCNC(=N)N)C(=O)N[C@@H](CCCNC(=N)N)C(=O)N[C@@H](CCC(N)=O)C(=O)N[C@@H](CCCNC(=N)N)C(=O)N[C@@H](CCCNC(=N)N)C(=O)N[C@@H](CS)C(=O)N[C@@H](CSSCCN)C(=O)N[C@@H](CCCNC(=N)N)C(=O)NCC(=O)N[C@@H](Cc3ccc(O)cc3)C(=O)O)ccc21` (5TAMRA-RRRQRRCC(Cysteamine)RGY-OH), the Drug uptake result is given as “Not Active”.

`CN(C)c1ccc2c(c1)Oc1cc(N(C)C)ccc1C21OC(=O)c2cc(C(=O)N[C@@H](CCCNC(=N)N)C(=O)N[C@@H](CCCNC(=N)N)C(=O)N[C@@H](CCCNC(=N)N)C(=O)N[C@@H](CCC(N)=O)C(=O)N[C@@H](CCCNC(=N)N)C(=O)N[C@@H](CCCNC(=N)N)C(=O)N[C@@H](CS)C(=O)N[C@@H](CS)C(=O)N[C@@H](CCCNC(=N)N)C(=O)NCC(=O)N[C@@H](Cc3ccc(O)cc3)C(=O)O)ccc21` (5TAMRA-RRRQRRCCRGY-OH): the Drug uptake result is listed as “Not Active”.

On to `CN(C)c1ccc2c(c1)Oc1cc(N(C)C)ccc1C21OC(=O)c2cc(C(=O)N[C@@H](CCCNC(=N)N)C(=O)N[C@@H](CCCNC(=N)N)C(=O)N[C@@H](CCCNC(=N)N)C(=O)N[C@@H](CCC(N)=O)C(=O)N[C@@H](CCCNC(=N)N)C(=O)N[C@@H](CCCNC(=N)N)C(=O)N[C@@H](CSSCCN)C(=O)N[C@@H](CS)C(=O)N[C@@H](CCCNC(=N)N)C(=O)NCC(=O)N[C@@H](Cc3ccc(O)cc3)C(=O)O)ccc21` (5TAMRA-RRRQRRC(Cysteamine)CRGY-OH), for which the Drug uptake entry was “Not Active”.

`CN(C)c1ccc2c(c1)Oc1cc(N(C)C)ccc1C21OC(=O)c2cc(C(=O)N[C@@H](CCCNC(=N)N)C(=O)N[C@@H](CCCNC(=N)N)C(=O)N[C@@H](CCCNC(=N)N)C(=O)N[C@@H](CCC(N)=O)C(=O)N[C@@H](CCCNC(=N)N)C(=O)N[C@@H](CCCNC(=N)N)C(=O)N[C@@H](CSSCCN)C(=O)N[C@@H](CSSCCN)C(=O)N[C@@H](CCCNC(=N)N)C(=O)NCC(=O)N[C@@H](Cc3ccc(O)cc3)C(=O)O)ccc21` (5TAMRA-RRRQRRC(Cysteamine)C(Cysteamine)RGY-OH): the Drug uptake entry is given as “Active”.
